This is an account of results in PMC2009665, “The bacterial mutation test. Six tests for carcinogenicity” (British Journal of Cancer, 1978).

The subject of data set [1] is Salmonella typhimurium TA 1538.
The subject of data set [2] is Salmonella typhimurium TA 100.
The subject of data set [3] is Salmonella typhimurium TA 1538. Conditions: cited from earlier work.
The test system of data set [4] is Salmonella typhimurium TA 100. The following applies: cited from earlier work.
In data set [5] the test system is Salmonella typhimurium TA 1535.
Data set [6] deals with Salmonella typhimurium TA 98.
The subject of data set [7] is Salmonella typhimurium TA 1535. The following applies: cited from earlier work.
Another data set has as its system TA 1537. The following applies: cited from earlier work.
Data set [8] deals with Salmonella typhimurium (TA 1535, TA 1538, TA 98 and TA 100).
In the next data set the test system is S. typhimurium. Conditions: cited from earlier work.
In another data set the test system is Strain G46. Conditions: cited from earlier work.
For a further data set, the system named is Strain C 3076. Conditions: cited from earlier work.
The test system of the next data set is Strain TA 1530. The following applies: cited from earlier work.
In data set [9] the test system is Salmonella typhimurium TA 98. Conditions: cited from earlier work.
For a further data set, the system named is Strain TA 1532. Conditions: Lab 8; H induction method unknown; ref Green (1974); cited from earlier work.
Another data set has as its system strain TA 1950. The following applies: after induction of enzymes with BHT; ref Green, 1974; cited from earlier work.
The subject of the next data set is strain TA 1952. Conditions: after induction of enzymes with BHT; ref Green, 1974; cited from earlier work.

Structures are written as SMILES. Read-outs that look alike come from different tables or passages of the source.

Turning to `Nc1ccc2cc3ccccc3cc2c1` [2-Aminoanthracene], the “Result on TA 1538” value in data set [1] and in data set [3] was “+” throughout. The “Result on TA 100” value in data set [2] and in data set [4] was “+” each time.

Turning to `Nc1ccc2ccccc2c1` [2-Naphthylamine], the “Result on TA 1535” value in [5] and in [7] was “+” each time. Further, the “Result on TA 98” value in data set [6] is listed as “-”.

In the case of `Nc1ccc(-c2ccccc2)cc1` [4-Aminobiphenyl], in data set [5], the “Result on TA 1535” value is on record as “-”. The “Result on TA 1538” value in data set [1] is “+”. Also, the “Result on TA 98” value in data set [6] is on record as “+”. In the data set on TA 1537, the “Result on TA 1537” value is “+”.

With `CN(C)c1ccc(N=Nc2ccccc2)cc1` [4-Dimethylaminoazobenzene], the “Result on TA 1535” value in [5] is given as “+”. Besides, the “Result on TA 1538” value in [1] and in data set [3] was “+” in each case. The “Result on TA 98” value in [6] is on record as “+”. In addition, the “Result on TA 100” value in data set [2] is “+”. For the same compound, in data set [8], the “Result in the present study” value is on record as “positive”. The “Response in the plate incorporation assay” value with S. typhimurium (plate incorporation assay, ref Commoner et al. (1974)) is “unable to obtain a positive response”.

Take `Nc1cc2c3ccccc3ccc2c2ccccc12` [6-Aminochrysene]: the “Result on TA 1535” value in data set [5] is recorded as “-”. Besides, in data set [6], the “Result on TA 98” value is “+”. Further, in the data set on TA 1537, the “Result on TA 1537” value was “+”.

Regarding `Cc1c2ccccc2c(C)c2c1ccc1ccccc12` [9,10-Dimethyl-1,2-benzanthracene], the “Maximum fold increase in Salmonella revertants above the concurrent negative-control values, TA 1535” value in data set [5] is given as “-”. Also, in data set [1], the “Concentration of the compound at which the maximum effect occurred, TA 1538” value came to 2500 and the “Maximum fold increase in Salmonella revertants above the concurrent negative-control values, TA 1538” value was determined as 4 fold. In addition, the “Maximum fold increase in Salmonella revertants above the concurrent negative-control values, TA 98” value in [6] is “-”. Also, in data set [2], the “Concentration of the compound at which the maximum effect occurred, TA 100” value was found to be 2500 and the “Maximum fold increase in Salmonella revertants above the concurrent negative-control values, TA 100” value turned out to be 5 fold. In addition, the “Test result (prediction of carcinogenicity from the test)” value in data set [8] was “+”.

For `O=C1CCO1` [/3-Propiolactone], the “Result on TA 1538” value in [1] is listed as “+”. Moreover, the “Result on TA 98” value in data set [6] is reported as “-”. For the same compound, the “Result on TA 100” value in data set [2] and in data set [4] was “+” throughout. Besides, the “Result on other strains: G46” value in the data set on Strain G46 was 46+. For the same compound, the “Result on other strains: C 3076” value in the data set on Strain C 3076 is recorded as 76+.

On to `CCN(CC)N=O` [Diethylnitrosamine], for which, in data set [8], the “Result in the present study” value is given as “positive” and the “Result on subsequent testing” value is reported as “negative”.

As to `CN(C)N=O` [Dimethylnitrosamine], the “Result on TA 1535” value in data set [5] is listed as “-”. Besides, the “Result on TA 1538” value in data set [1] was “-”. Besides, in data set [6], the “Result on TA 98” value is reported as “-”. In data set [8], the “Result in the present study” value is “negative” and the “Result on subsequent testing” value was “positive results have, on occasions”. Further, the “Result on other strains: TA 1530” value with Strain TA 1530 (Lab 4, P Phenobarbital induction and S9 mix added, L tested in liquid culture, ref Bartsch et al. (1976)) is reported as 3+.

With `CCOS(C)(=O)=O` [Ethyl methanesulphonate], the “Result on TA 1535” value in data set [5] and in data set [7] was “+” each time. Besides, the “Result on TA 1538” value in data set [1] is on record as “+”. For the same compound, in [6], the “Result on TA 98” value is given as “+”. Further, the “Result on TA 100” value in [2] and in data set [4] was “+” throughout. Also, the “Result in the present study” value in data set [8] was “detected in all 4 strains”. In addition, the “Result on other strains: G46” value in the data set on Strain G46 is listed as 46+. In addition, the “Result on other strains: C 3076” value with Strain C 3076 is 76+.

With `CN(C)P(=O)(N(C)C)N(C)C` [Hexamethylphosphoramide], the “Result on TA 1538” value in data set [1] and in data set [3] was “-” throughout. The “Result on TA 98” value in data set [6] and in data set [9] was “-” in each case.

As to `NN` [Hydrazine], the “Result on TA 1535” value in data set [5] and in [7] was “+” in each case. The “Result on TA 1538” value in data set [1] and in data set [3] was “-” throughout. Also, in [6], the “Result on TA 98” value is recorded as “+”. The “Result on TA 100” value in [2] is listed as “+”. In addition, the “Result on TA 1537” value in the data set on TA 1537 was “-”. Besides, the “Result on other strains: TA 1530” value in the data set with Strain TA 1530 (Lab 2, W no S9 mix, ref McCann et al. (1975) and references quoted therein) is on record as 3+. Also, the “Result on other strains: G46” value in the data set on Strain G46 is on record as 46+.

In the case of `C=CCc1ccc2c(c1)OCO2` [Safrole], in data set [1], the “Result on TA 1538” value is “-”. Also, the “Result in the present study” value in data set [8] was “positive”. Further, the “Result on TA 1537” value with TA 1537 is “-”. Moreover, in the data set with Strain TA 1530 (Lab 8, H induction method unknown, ref Green (1974)), the “Result on other strains: TA 1530” value is 3+. The “Result on other strains: TA 1532” value in the data set on Strain TA 1532 is 2+. The “Result in host-mediated assay, strain TA 1950” value in the data set with strain TA 1950 was “positive”. Besides, the “Result in host-mediated assay, strain TA 1952” value in the data set on strain TA 1952 is recorded as “positive”.

As to `CCOC(N)=O` [Urethane], the “Result on TA 1535” value in [5] and in data set [7] was “-” each time. In addition, in [1], the “Result on TA 1538” value was “-”. For the same compound, the “Result on TA 98” value in data set [6] and in data set [9] was “-” each time. Besides, in the data set on TA 1537, the “Result on TA 1537” value is “-”.

As for `C=CCl` [Vinyl chloride], in the data set with S. typhimurium, the “Result dissolved in DMSO” value was “negative” and the “Result when tested as a gas” value is “positive”.
